Laboratory results: PMC9953468, “In Silico, In Vitro, and Ex Vivo Biological Activity of Some Novel Mebeverine Precursors” (Biomedicines, 2023)
Like-named read-outs stand apart in the source and are kept apart here.

Key:
[1] = MTT cell viability assay; type: cell-based, human; settings: human, ± SD, read-out: In vitro cytotoxicity (IC50)
Experimental: (§1) In order to evaluate the in vitro biocompatibility of the experimental compounds, a series of cell viability assays were performed against human malignant leukemic cell lines (LAMA-84, K-562) as well as normal murine fibroblast cells (CCL-1). All cell lines were purchased from the German Collection of Microorganisms and Cell Cultures (DSMZ GmbH, Braunschweig, Germany). Cell cultures were cultivated in a growth medium RPMI 1640 supplemented with 10% fetal bovine serum (FBS), 5% L-glutamine, and incubated under standard conditions of 37 °C and 5% humidified CO2 atmosphere.
(§2) The experimental design involved a number of cytotoxicity assays that measured cell growth inhibition by the newly synthesized compounds. Cell viability was evaluated using a standard MTT-based colorimetric assay. Exponential-phased cells were harvested and seeded (100 μL/well) in 96-well plates at the appropriate density (3 × 10^5) for the suspension cultures (LAMA-84 and K-562) and 1.5 × 10^5 for the adherent one (CCL-1). Cells were treated and incubated with various concentrations of the experimental compounds in the concentration range of 400-6.25 µM. After exposure time of 72 h, a filter-sterilized MTT substrate solution (5 mg/mL in PBS) was added to each well of the culture plate. A further 1–4 h incubation allowed for the formation of purple insoluble formazan precipitates. The latter were dissolved in isopropyl alcohol solution containing 5% formic acid prior to absorbance measurement at 550 nm using a microplate reader (Labexim LMR-1). Collected absorbance values were blanked against MTT and isopropanol solution and normalized to the mean value of the untreated control (100% cell viability). Semi-logarithmic “dose–response” curves were constructed and the half-inhibitory concentrations of the screened compounds against each tested cell line were calculated. Values of p ≤ 0.05 were considered statistically significant.

[2] = MTT cell viability assay; type: cell-based; settings: mouse, CCL-1, normal murine fibroblast cells, read-out: In vitro cytotoxicity (IC50)
Experimental: as §1, §2

[3] = system: Eighteen tested microorganisms (Gram-positive bacteria, Gram-negative bacteria, yeasts, fungi); test: Antimicrobial activity, agar well diffusion method, whole panel; type: cell-based; settings: whole panel of tested microorganisms, in words
Description: Eighteen tested microorganisms including five Gram-positive bacteria (Bacillus subtilis ATCC 6633, Bacillus amyloliquefaciens 4BCL-YT, Staphylococcus aureus ATCC 25923, Listeria monocytogenes NBIMCC 8632, Enterococcus faecalis ATCC 19433), five Gram-negative bacteria (Salmonella enteritidis ATCC 13076, Klebsiella sp.—clinical isolate, Escherichia coli ATCC 25922, Proteus vulgaris ATCC 6380, Pseudomonas aeruginosa ATCC 9027), two yeasts (Candida albicans NBIMCC 74, Saccharomyces cerevisiae ATCC 9763) and six fungi (Aspergillus niger ATCC 1015, Aspergillus flavus, Penicillium sp., Rhizopus sp., Mucor sp.—plant isolates, Fusarium moniliforme ATCC 38932) from the collection of the Department of Microbiology at the University of Food Technologies—Plovdiv, Bulgaria, were selected for the antimicrobial activity test.
The antimicrobial activity of the samples was determined by the agar well diffusion method. The tested bacteria B. subtilis and B. amyloliquefaciens were cultured on LBG agar at 30 °C. The test bacteria S. aureus, L. monocytogenes, E. faecalis, S. enteritidis, Klebsiella sp., E. coli, P. vulgaris and P. aeruginosa were cultured on LBG agar at 37 °C for 24 h. The yeast C. albicans was cultured on MEA at 37 °C, while S. cerevisiae was cultured on MEA at 30 °C for 24 h. The fungi A. niger, A. flavus, Penicillium sp., Rhizopus sp., Mucor sp., and F. moniliforme were grown on MEA at 30 °C for 7 days or until sporulation.
The inocula of the tested bacteria/yeasts were prepared by homogenization of a small amount of biomass in 5 mL of sterile 0.5% NaCl. […] The number of viable cells and fungal spores was determined using a bacterial counting chamber Thoma (Poly-Optik, GmbH, Bad Blankenburg, Germany). […] Next, the inoculated media were transferred in a quantity of 18 mL in sterile Petri plates (d = 90 mm) (Gosselin™, Hazebrouck, France) and allowed to harden. […]
The antimicrobial activity was determined by measuring the diameter of the inhibition zones around the wells on the 24th and 48th h of incubation. […]

[4] = LAMA-84, CML in blast crisis (bcr-abl+)

SMILES | IC50 at 72 h ([1]; K-562, Blast phase CML (bcr-abl+)) [µM] | IC50 at 72 h [1, 4] [µM] | IC50 at 72 h [2] [µM] | antimicrobial activity [3] | IC50 at 72 h ([1]; K-562 cells (blast phase chronic myeloid leukemia), K-562, Blast phase CML (bcr-abl+)) [µM] | IC50 at 72 h ([2]; CCL-1 normal fibroblast cells) [µM]
CC(C)C(N)Cc1ccccc1 (centres unmarked) [Compound 3, 3-Methyl-1-phenylbutan-2-amine] | 250 ± 10.5 | 239 ± 18.2 | > 300 | only modest activity against Gram-negative bacteria |  | 
CC(=O)NC(Cc1ccccc1)C(C)C (centres unmarked) [Compound 4a, N-(3-methyl-1-phenylbutan-2-yl)acetamide] |  | 360 ± 11 |  | inhibited only the growth of Escherichia coli | 276 ± 19.7 | > 300
